We go through 58 molecules from patent US12459925B2, “Sulphonyl urea derivatives as NLRP3 inflammasome modulators” (priority 2017, dated 2025).

The test deals with IL-1β release upon NLRP3 activation in peripheral blood mononuclear cells (PBMC). Briefly: PBMC IC50 determination assay (IL-1β release, Protocol A ELISA / Protocol B HTRF). The note with it: Homo sapiens; PBMC primed with LPS 3 h, compound 30 min, stimulated with ATP (5 mM) or nigericin (10 μM) 1 h; IL-1β in media; read-out: Average PBMC IC50. Format: cell-based. How it is done: The compounds of the present disclosure were tested for their inhibitory activity against IL-1β release upon NLRP3 activation in peripheral blood mononuclear cells (PBMC).
Isolated cells were seeded into the wells of a 96-well plate and incubated for 3 h with lipopolysaccharide (LPS). Following medium exchange, the compounds of the present disclosure were added (a single compound per well) and the cells were incubated for 30 min. Next, the cells were stimulated either with ATP (5 mM) or nigericin (10 μM) for 1 h and the cell culture media from the wells were collected for further analysis.
The release of IL1-β into the media was determined by a quantitative detection of IL-1β in the media using an IL-1β enzyme-linked immunosorbent assay (ELISA) Ready-SET-Go!, eBioscience cat. […] Subsequently, plates were blocked with blocking buffer for 1 h at room temperature (rt) and after washing with a buffer (PBS with 0.05% Tween-20) incubated with protein standard and culture media. […] Plates were washed and incubated with HRP-streptavidin for 30 min at rt and washed again. The signal was developed after addition of 3,3′,5,5′-tetramethylbenzidine-peroxidase (TMB) until colour appeared and the reaction was stopped by 2 M H2SO4. A microplate spectrophotometer (BioTek) was used to detect signals with 450 nm. The detection range of IL-1β ELISA was 2-150 ng/ml.
Isolated cells were seeded into the wells (280,000 cells/well) of a 96-well plate and incubated for 3 h with lipopolysaccharide (LPS, 1 μg/ml diluted 1000× from a 1 mg/ml stock solution). The compounds of the present disclosure were added (a single compound per well) and the cells were incubated for 30 min. Next, the cells were stimulated with ATP (5 mM final concentration diluted 20× from a 100 mM stock solution) for 1 h and the cell culture media from the wells were collected for further analysis.
The release of IL-1β into the media was determined by quantitative detection of IL-1β in the media using HTRF®, CisBio cat. No. 62HIL1BPEH. Briefly, cell culture supernatant were dispensed directly into the assay plate containing antibodies labelled with the HTRF® donor and acceptor. A microplate spectrophotometer (BMG) was used to detect signals at 655 nm and 620 nm. The detection range of IL-1β HTRF® was 39-6500 pg/ml.
A word on the IC50: it is the midpoint of a concentration-inhibition curve. Take `CN1CC2(CC(N(c3cnn(C)c3)S(=O)(=O)NC(=O)Nc3c4c(cc5c3CCC5)CCC4)C2)C1` [Compound 58]: the half-inhibitory concentration (IC50) was 10000 to 50000 nM.

In the case of `CN1CC(N(c2cnn(C)c2)S(=O)(=O)NC(=O)Nc2c3c(cc4c2CCC4)CCC3)C1` [Compound 59], the 50% inhibitory concentration (IC50) was less than 1000 nM.

In the case of `CN1CCC(N(c2cnn(C)c2)S(=O)(=O)NC(=O)Nc2c3c(cc4c2CCC4)CCC3)CC1C(F)(F)F` (stereo not shown) [Compound 60], the half-inhibitory concentration (IC50) was less than 1000 nM.

For the molecule `Cn1cc(N(C2CCN(CC(F)(F)F)C2)S(=O)(=O)NC(=O)Nc2c3c(cc4c2CCC4)CCC3)cn1` (stereo not shown) [Compound 61], the half-maximal inhibitory concentration (IC50) was less than 1000 nM.

As to `CCN1CCCC(N(c2cnn(C)c2)S(=O)(=O)NC(=O)Nc2c3c(cc4c2CCC4)CCC3)C1` (stereo not shown) [Compound 62], the IC50 was less than 1000 nM.

In the case of `Cn1cc(N(CCN2CCC2)S(=O)(=O)NC(=O)Nc2c3c(cc4c2CCC4)CCC3)cn1` [Compound 63], the IC50 is less than 1000 nM.

`CC(C)N1CC(N(c2cnn(C)c2)S(=O)(=O)NC(=O)Nc2c3c(cc4c2CCC4)CCC3)C1` [Compound 64]: the 50% inhibitory concentration (IC50) is less than 1000 nM.

On to `Cn1cc(N(C2CCN(CC(F)(F)F)CC2)S(=O)(=O)NC(=O)Nc2c3c(cc4c2CCC4)CCC3)cn1` [Compound 65], for which the IC50 lay in the range of 1000 to 3000 nM.

On to `Cn1cc(N(C2CC3(COC3)C2)S(=O)(=O)NC(=O)Nc2c3c(cc4c2CCC4)CCC3)cn1` [Compound 66], for which the IC50 is 1000 to 3000 nM.

As to `CN1CCCC(N(c2cnn(C)c2)S(=O)(=O)NC(=O)Nc2c3c(cc4c2CCC4)CCC3)CC1` (stereo not shown) [Compound 67], the IC50 was less than 1000 nM.

Regarding `CN1CCCC1CN(c1cnn(C)c1)S(=O)(=O)NC(=O)Nc1c2c(cc3c1CCC3)CCC2` (stereo not shown) [Compound 68], the half-inhibitory concentration (IC50) is less than 1000 nM.

On to `Cn1cc(N(C2CC3(C2)CN(CC(F)(F)F)C3)S(=O)(=O)NC(=O)Nc2c3c(cc4c2CCC4)CCC3)cn1` [Compound 69], for which the IC50 lay within 3000 to 10000 nM.

As for `CCc1cc(CC)cc(NC(=O)NS(=O)(=O)N(c2cnn(C)c2)C2CCOCC2)c1` [Compound 70], the IC50 lay within 3000 to 10000 nM.

With `CC(C)c1cccc(NC(=O)NS(=O)(=O)N(c2cnn(C)c2)C2CCOCC2)c1` [Compound 71], the half-inhibitory concentration (IC50) was in the range of 10000 to 50000 nM.

Regarding `Cn1cc(N(C2CCOCC2)S(=O)(=O)NC(=O)Nc2cc(Cl)cc(Cl)c2)cn1` [Compound 72], the IC50 is 1000 to 3000 nM.

Regarding `CC(C)c1cc(NC(=O)NS(=O)(=O)N(c2cnn(C)c2)C2CCOCC2)cc(C(C)C)c1` [Compound 73], the IC50 was 1000 to 3000 nM.

As for `CC1CN(CCN(c2cnn(C)c2)S(=O)(=O)NC(=O)Nc2c3c(cc4c2CCC4)CCC3)C1` [Compound 74], the half-maximal inhibitory concentration (IC50) is 3000 to 10000 nM.

`CCc1cc(NC(=O)NS(=O)(=O)N(c2cnn(C)c2)C2CCOCC2)cc(C(F)(F)F)c1` [Compound 75]: the concentration for half-maximal inhibition (IC50) was less than 1000 nM.

`CCc1cc(C)cc(NC(=O)NS(=O)(=O)N(c2cnn(C)c2)C2CCOCC2)c1` [Compound 76]: the IC50 is 1000 to 3000 nM.

Take `CCc1cc(Cl)cc(NC(=O)NS(=O)(=O)N(c2cnn(C)c2)C2CCOCC2)c1` [Compound 77]: the half-inhibitory concentration (IC50) lay in the range of 1000 to 3000 nM.

Consider `Cn1cc(N(C2CCOCC2(C)C)S(=O)(=O)NC(=O)Nc2c3c(cc4c2CCC4)CCC3)cn1` (stereo not shown) [Compound 78], for which the half-inhibitory concentration (IC50) is less than 1000 nM.

In the case of `Cn1cc(N(C2CCOC(C)(C)C2)S(=O)(=O)NC(=O)Nc2c3c(cc4c2CCC4)CCC3)cn1` (stereo not shown) [Compound 79], the IC50 was less than 1000 nM.

In the case of `CCc1cc(NC(=O)NS(=O)(=O)N(c2cnn(C)c2)C2CCOCC2)cc(CC)c1F` [Compound 80], the concentration for half-maximal inhibition (IC50) lay within 1000 to 3000 nM.

In the case of `CCc1cc(NC(=O)NS(=O)(=O)N(c2cnn(C)c2)C2CCOCC2)cc(C(C)C)c1` [Compound 81], the IC50 lay within 1000 to 3000 nM.

Take `CN1CC(N(c2cnn(C)c2)S(=O)(=O)NC(=O)Nc2c3c(cc4c2CCC4)CCC3)CCC1=O` (stereo not shown) [Compound 82]: the IC50 was less than 1000 nM.

As for `CN1CC(N(c2cnn(C)c2)S(=O)(=O)NC(=O)Nc2c3c(cc4c2CCC4)CCC3)CC1=O` (stereo not shown) [Compound 83], the IC50 is 1000 to 3000 nM.

Take `C[C@H]1CC(N(c2cnn(C)c2)S(=O)(=O)NC(=O)Nc2c3c(cc4c2CCC4)CCC3)CCO1` (stereo partly shown) [Compound 84]: the IC50 was less than 1000 nM.

Consider `C[C@@H]1CC(N(c2cnn(C)c2)S(=O)(=O)NC(=O)Nc2c3c(cc4c2CCC4)CCC3)CCO1` (stereo partly shown) [Compound 85], for which the IC50 is less than 1000 nM.

Turning to `Cc1ncc(N(C2CCOCC2)S(=O)(=O)NC(=O)Nc2c3c(cc4c2CCC4)CCC3)cn1` [Compound 86], the IC50 was less than 1000 nM.

For `Cc1noc(N(C2CCOCC2)S(=O)(=O)NC(=O)Nc2c3c(cc4c2CCC4)CCC3)c1C` [Compound 87], the IC50 is less than 1000 nM.

On to `CC1CCCC(C)C1NC(=O)NS(=O)(=O)N(c1cnn(C)c1)C1CCOCC1` (stereo not shown) [Compound 88], for which the concentration for half-maximal inhibition (IC50) was less than 1000 nM.

In the case of `CC(C)c1cc(Cl)cc(NC(=O)NS(=O)(=O)N(c2cnn(C)c2)C2CCOCC2)c1` [Compound 89], the IC50 was in the range of 1000 to 3000 nM.

As to `CCOc1cc(NC(=O)NS(=O)(=O)N(c2cnn(C)c2)C2CCOCC2)cc(OCC)c1` [Compound 90], the IC50 was in the range of 10000 to 50000 nM.

Take `CN1CCCC(N(c2cnn(C)c2)S(=O)(=O)NC(=O)Nc2cc(Cl)cc(Cl)c2)C1` (stereo not shown) [Compound 91]: the concentration for half-maximal inhibition (IC50) is less than 1000 nM.

For `Cn1cc(N(C2CCOCC2)S(=O)(=O)NC(=O)Nc2cc(Cl)cc(OC(F)(F)F)c2)cn1` [Compound 92], the concentration for half-maximal inhibition (IC50) fell in the range of 1000 to 3000 nM.

For `COc1cc(Cl)cc(NC(=O)NS(=O)(=O)N(c2cnn(C)c2)C2CCOCC2)c1` [Compound 93], the IC50 is less than 1000 nM.

As for `Cn1cc(N(C2CCOCC2)S(=O)(=O)NC(=O)Nc2cc(Cl)cc(Cl)c2F)cn1` [Compound 94], the IC50 fell in the range of 1000 to 3000 nM.

As for `Cn1ccc(N(C2CCOCC2)S(=O)(=O)NC(=O)Nc2c3c(cc4c2CCC4)CCC3)c1` [Compound 95], the IC50 is less than 1000 nM.

As for `Cn1ncc(N(C2CCOCC2)S(=O)(=O)NC(=O)Nc2c3c(cc4c2CCC4)CCC3)n1` [Compound 96], the half-maximal inhibitory concentration (IC50) is less than 1000 nM.

For the molecule `CCc1cc(NC(=O)NS(=O)(=O)N(c2cnn(C)c2)C2CCCN(C)C2)cc(C(F)(F)F)c1` (stereo not shown) [Compound 97], the IC50 is less than 1000 nM.

Regarding `CC(C)Cc1cc(Cl)cc(NC(=O)NS(=O)(=O)N(c2cnn(C)c2)C2CCOCC2)c1` [Compound 98], the IC50 fell in the range of 1000 to 3000 nM.

`Cc1nn(C)cc1N(C1CCOCC1)S(=O)(=O)NC(=O)Nc1c2c(cc3c1CCC3)CCC2` [Compound 99]: the half-inhibitory concentration (IC50) is less than 1000 nM.

Regarding `Cc1ncc(N(C2CCOCC2)S(=O)(=O)NC(=O)Nc2c3c(cc4c2CCC4)CCC3)c(C)n1` [Compound 100], the IC50 was 1000 to 3000 nM.

As for `CC(C)c1cc(Cl)cc(NC(=O)NS(=O)(=O)N(c2cnn(C)c2)C2CCCN(C)C2)c1` (stereo not shown) [Compound 101], the 50% inhibitory concentration (IC50) was less than 1000 nM.

Regarding `CCc1cc(NC(=O)NS(=O)(=O)N(C[C@@H]2CCCN2C)c2cnn(C)c2)cc(C(F)(F)F)c1` [Compound 102], the 50% inhibitory concentration (IC50) was less than 1000 nM.

On to `Cc1nn(C)cc1N(C1CCCN(C)C1)S(=O)(=O)NC(=O)Nc1c2c(cc3c1CCC3)CCC2` (stereo not shown) [Compound 103], for which the IC50 is less than 1000 nM.

For the molecule `CC(C)c1ncc(N(C2CCOCC2)S(=O)(=O)NC(=O)Nc2c3c(cc4c2CCC4)CCC3)cn1` [Compound 104], the IC50 is less than 1000 nM.

With `CCC(C)c1cc(Cl)cc(NC(=O)NS(=O)(=O)N(c2cnn(C)c2)C2CCOCC2)c1` (stereo not shown) [Compound 105], the IC50 is less than 1000 nM.

Regarding `Cn1cc(N(C2CCOCC2)S(=O)(=O)NC(=O)Nc2cc(Cl)cc(OCC(F)(F)F)c2)cn1` [Compound 106], the IC50 was less than 1000 nM.

For `CN1CCC[C@H]1CN(c1cnn(C)c1)S(=O)(=O)NC(=O)Nc1c2c(cc3c1CCC3)CCC2` [Compound 107], the IC50 was less than 1000 nM.

As for `Cc1csc(N(C2CCOCC2)S(=O)(=O)NC(=O)Nc2c3c(cc4c2CCC4)CCC3)n1` [Compound 108], the IC50 is less than 1000 nM.

Regarding `CCc1cc(N(C2CCOCC2)S(=O)(=O)NC(=O)Nc2c3c(cc4c2CCC4)CCC3)on1` [Compound 109], the half-inhibitory concentration (IC50) was less than 1000 nM.

Take `CN1CCC[C@@H]1CN(c1cnn(C)c1)S(=O)(=O)NC(=O)Nc1c2c(cc3c1CCC3)CCC2` [Compound 110]: the IC50 is less than 1000 nM.

As for `CN1CCC1CN(c1cnn(C)c1)S(=O)(=O)NC(=O)Nc1c2c(cc3c1CCC3)CCC2` (stereo not shown) [Compound 111], the IC50 is less than 1000 nM.

For the molecule `CN1CCC[C@@H]1CN(c1cnn(C)c1)S(=O)(=O)NC(=O)Nc1cc(Cl)cc(Cl)c1` [Compound 112], the 50% inhibitory concentration (IC50) was less than 1000 nM.

For the molecule `Cc1cc(N(C2CCOCC2)S(=O)(=O)NC(=O)Nc2c3c(cc4c2CCC4)CCC3)sn1` [Compound 113], the IC50 was less than 1000 nM.

In the case of `CCc1cc(NC(=O)NS(=O)(=O)N(C[C@H]2CCCN2C)c2cnn(C)c2)cc(C(F)(F)F)c1` [Compound 114], the IC50 was less than 1000 nM.

With `CCCCc1cc(Cl)cc(NC(=O)NS(=O)(=O)N(c2cnn(C)c2)C2CCOCC2)c1` [Compound 115], the IC50 is less than 1000 nM.
